Data from ChEMBL document CHEMBL3885861, “Open TG-GATES”.

Organism: Rattus norvegicus
Assay: Open TG-GATES - Regimen: Single
Assay type: toxicity, organism-based, Sprague-Dawley
Parameters: regimen Single, gender Male, age 6 weeks
Conditions: in vivo, po, 10 mg/kg, route gavage, dose level Low; for gamma-GTP / ALP / ALT / AST / BUN / CRE / Ca / DBIL / GLC / IP / K / LDH / Na / PL / RALB / TBIL / TC / TG / TP: tissue Plasma; for KIDNEY_L / KIDNEY_R / KIDNEY_TOTAL: tissue Kidney; for LIVER: tissue Liver

**Q.** How did the gamma-GTP (6 h) turn out when `CSc1ccc2c(c1)N(CCC1CCCCN1C)c1ccccc1S2` (configuration not stated) [THIORIDAZINE] was run?
**A.** 3.2 IU/L

**Q.** What about the TERMINAL_BW (9 h) of the same compound?
**A.** 213.3 g

**Q.** What about the APTT (9 h, tissue Blood) of the same compound?
**A.** 16.6 s

**Q.** And the Bas (9 h, tissue Blood)?
**A.** 0%

**Q.** And the Eos (9 h, tissue Blood)?
**A.** 1%

**Q.** What about the Fbg (9 h, tissue Blood) of the same compound?
**A.** 209.6 mg/dL

**Q.** And the Hb (9 h, tissue Blood)?
**A.** 12.7 g/dL

**Q.** What about the Ht (9 h, tissue Blood) of the same compound?
**A.** 38.5%

**Q.** What about the Lym (9 h, tissue Blood) of the same compound?
**A.** 72.4%

**Q.** What about the MCH (9 h, tissue Blood) of the same compound?
**A.** 21.3 pg

**Q.** And the MCHC (9 h, tissue Blood)?
**A.** 33.1%

**Q.** And the MCV (9 h, tissue Blood)?
**A.** 64.5 fL

**Q.** What about the Mono (9 h, tissue Blood) of the same compound?
**A.** 6.4%

**Q.** What about the Neu (9 h, tissue Blood) of the same compound?
**A.** 20.6%

**Q.** What about the PT (9 h, tissue Blood) of the same compound?
**A.** 12.3 s

**Q.** What about the Plat (9 h, tissue Blood) of the same compound?
**A.** 105.4 x10_4/uL

**Q.** What about the RBC (9 h, tissue Blood) of the same compound?
**A.** 598.2 x10_4/ul

**Q.** And the Ret (9 h, tissue Blood)?
**A.** 8.1%

**Q.** What about the WBC (9 h, tissue Blood) of the same compound?
**A.** 80.7 x10_2/uL

**Q.** And the KIDNEY_L (9 h)?
**A.** 1 g

**Q.** What about the KIDNEY_R (9 h) of the same compound?
**A.** 1 g

**Q.** What about the KIDNEY_TOTAL (9 h) of the same compound?
**A.** 2.1 g

**Q.** What about the LIVER (9 h) of the same compound?
**A.** 9.6 g

**Q.** What about the ALP (9 h) of the same compound?
**A.** 749.8 IU/L

**Q.** And the ALT (9 h)?
**A.** 29.4 IU/L

**Q.** And the AST (9 h)?
**A.** 64.4 IU/L

**Q.** And the BUN (9 h)?
**A.** 11.2 mg/dL

**Q.** And the CRE (9 h)?
**A.** 0.6 mg/dL

**Q.** And the Ca (9 h)?
**A.** 10.8 mg/dL

**Q.** What about the DBIL (9 h) of the same compound?
**A.** 0.034 mg/dL

**Q.** What about the GLC (9 h) of the same compound?
**A.** 195.4 mg/dL

**Q.** What about the IP (9 h) of the same compound?
**A.** 10.7 mg/dL

**Q.** What about the K (9 h) of the same compound?
**A.** 5.1 meq/L

**Q.** What about the LDH (9 h) of the same compound?
**A.** 66.8 IU/L

**Q.** What about the Na (9 h) of the same compound?
**A.** 140 meq/L

**Q.** What about the PL (9 h) of the same compound?
**A.** 142.2 mg/dL

**Q.** And the RALB (9 h)?
**A.** 3.8 g/dL

**Q.** What about the TBIL (9 h) of the same compound?
**A.** 0.4 mg/dL

**Q.** And the TC (9 h)?
**A.** 77.4 mg/dL

**Q.** What about the TG (9 h) of the same compound?
**A.** 31.4 mg/dL

**Q.** And the TP (9 h)?
**A.** 5.3 g/dL

**Q.** And the gamma-GTP (9 h)?
**A.** 1.6 IU/L

**Q.** What about the TERMINAL_BW (24 h) of the same compound?
**A.** 232.6 g

**Q.** What about the APTT (24 h, tissue Blood) of the same compound?
**A.** 16.5 s

**Q.** And the Bas (24 h, tissue Blood)?
**A.** 0%

**Q.** What about the Eos (24 h, tissue Blood) of the same compound?
**A.** 1%

**Q.** What about the Fbg (24 h, tissue Blood) of the same compound?
**A.** 215.4 mg/dL

**Q.** And the Hb (24 h, tissue Blood)?
**A.** 13 g/dL

**Q.** And the Ht (24 h, tissue Blood)?
**A.** 39.1%

**Q.** And the Lym (24 h, tissue Blood)?
**A.** 80.4%

**Q.** What about the MCH (24 h, tissue Blood) of the same compound?
**A.** 21.8 pg

**Q.** And the MCHC (24 h, tissue Blood)?
**A.** 33.3%

**Q.** What about the MCV (24 h, tissue Blood) of the same compound?
**A.** 65.3 fL

**Q.** And the Mono (24 h, tissue Blood)?
**A.** 6.6%

**Q.** What about the Neu (24 h, tissue Blood) of the same compound?
**A.** 11.8%

**Q.** What about the PT (24 h, tissue Blood) of the same compound?
**A.** 12.2 s

**Q.** What about the RBC (24 h, tissue Blood) of the same compound?
**A.** 599.2 x10_4/ul

**Q.** And the Ret (24 h, tissue Blood)?
**A.** 8.2%

**Q.** What about the WBC (24 h, tissue Blood) of the same compound?
**A.** 132.3 x10_2/uL

**Q.** What about the KIDNEY_L (24 h) of the same compound?
**A.** 1 g

**Q.** And the KIDNEY_R (24 h)?
**A.** 1 g

**Q.** And the KIDNEY_TOTAL (24 h)?
**A.** 2 g

**Q.** And the LIVER (24 h)?
**A.** 11.9 g

**Q.** What about the ALP (24 h) of the same compound?
**A.** 799.2 IU/L

**Q.** And the ALT (24 h)?
**A.** 39.6 IU/L

**Q.** What about the AST (24 h) of the same compound?
**A.** 68.6 IU/L

**Q.** What about the BUN (24 h) of the same compound?
**A.** 19 mg/dL

**Q.** And the CRE (24 h)?
**A.** 0.5 mg/dL

**Q.** And the Ca (24 h)?
**A.** 11.3 mg/dL

**Q.** What about the DBIL (24 h) of the same compound?
**A.** 0.074 mg/dL

**Q.** What about the GLC (24 h) of the same compound?
**A.** 193.6 mg/dL

**Q.** What about the IP (24 h) of the same compound?
**A.** 8.7 mg/dL

**Q.** And the K (24 h)?
**A.** 4.9 meq/L

**Q.** And the LDH (24 h)?
**A.** 77.4 IU/L

**Q.** And the Na (24 h)?
**A.** 138.2 meq/L

**Q.** What about the PL (24 h) of the same compound?
**A.** 154.8 mg/dL

**Q.** What about the RALB (24 h) of the same compound?
**A.** 4 g/dL

**Q.** What about the TBIL (24 h) of the same compound?
**A.** 0.4 mg/dL

**Q.** And the TC (24 h)?
**A.** 81 mg/dL

**Q.** And the TG (24 h)?
**A.** 116.8 mg/dL

**Q.** What about the TP (24 h) of the same compound?
**A.** 5.8 g/dL

**Q.** What about the gamma-GTP (24 h) of the same compound?
**A.** 1.4 IU/L
